Experimental findings from patent US8080522B2, “Polyethlene glycol modifications of thymosin alpha-1” (Institute of Pharmacology and Toxicology Academy of …, priority 2005, dated 2011) are described below.

Series [1] has as its system spleen cell. Kind of series: Interferon-γ production of spleen cells stimulated by Con A (double antibody sandwich ELISA). Format: cell-based. The settings on record: for Concentration of IFN-γ: Con A 0.5 μg/mL, 24 hours, n = 3; for Enhancement percentage: versus Con A alone. The protocol:
Prepare spleen cell suspension in sterile condition. Adjust cell concentration to 5×10^6 cell/mL by adding RPMI-1640 culture with 20% bovine serum. Add 0.5 mL cell suspension, 0.25 mL Con A (final concentration is 0.5 μg/mL) and 0.25 mL samples with different concentrations in 24-well plate; and add RPMI-1640 culture in control wells. Incubate the plates in a 5% CO2 chamber at 37° C. for 24 hours. Centrifuge and collect supernatant, test the content of IFN-γ in supernatant by double antibody sandwich ELISA. The protocol is according to the instruction on ELISA kit.
For orientation: In an ELISA, binding on a coated surface is turned into a signal by an enzyme label.

Series [2] has as its system T lymphocyte (spleen cell). Kind of series: T lymphocyte proliferation stimulated by Con A (3H-TdR incorporation). Format: cell-based, mouse. The settings on record: Table 2-1; for 3H-TdR incorporation (cpm, x ± SD): Con A 0.5 μg/mL, 72 hours, n = 4; for Enhancement percentage: versus Con A alone. The method, then:
Sacrifice mouse by draining artery blood, remove spleen in sterile condition, and make it to spleen cell suspension. After red blood cell lysis, wash for 3 times, and stain with Trypan Blue to count the living cells. The amount of living cells should be more than 95%. Dilute the cell concentration to 5×10^6 cell/mL by adding RPMI-1640 culture with 10% bovine serum. Add spleen cell suspension to a sterilized 96-well plate for 100 μL per well. The total amount is 200 μL per well (including 50 μL Con A and 50 μL medicament). Each sample concentration is repeated fro 3-4 wells. Incubate the plate in a 5% CO2 chamber for 72 hours, add 10 μci/mL ^3H-TdR 20 μL per well 16 hours before termination of the incubation, giving rise to a final concentration of 1.0 μci (37.0 KBq)/mL. Collect cells on filter membrane by using Herveste 96 cell harvester, dried in 80° C. oven for 20 minutes or dried in air. Put the dried filter membrane into 1450-423 microBeta sample bag, add scintillation liquid, and measure radioactivity (cpm) in Perkin Elmer MicroBeta Trilux 1450 Scintillation Counter.

A short description of series [3]: Plasma concentration / pharmacokinetics in mouse (competitive ELISA). Format: in vivo. The settings on record: 300 μg per mouse, injected peritoneally, parameters in 24 h, n = 3. The method, then: Coating antigen: Dilute Tα1 detection antigen stock solution to a final concentration of 2 μg/mL with coating solution, and add it into the wells of ELISA plate for 0.1 mL per well, and incubate at 4° C. for 5 days. Then wash the ELISA plate 3 times with washing buffer, each 0.2 mL/well and 3 min/time. Add 0.2 mL blocking buffer to each well, incubate for 1.5 hours at 37° C., wash plate 2 times by washing buffer, and spin dried.
Sample preparation: Weight sample accurately, dissolve it in saline to a concentration of 1.5 mg/mL. Administrate 0.2 Ml by injection to each mouse peritoneally. Collect blood sample in 3 min, 20 min, 40 min, 1 h, 2 h, 3 h, 6 h, 8 h, 12 h, and 24 h. Collect serum by centrifuge the blood samples for 5 minutes at 10000 rpm, stored at −20° C. in a freezer. o prepare test sample, […] was added by 0.1 mL 1:1500 rabbit anti-Tα1 serum (final concentration is 1:6000), and 0.2 mL CD-1® mouse serum, and […]. Prepare blank control at the same time. Total volume is 0.4 mL. Incubate for 2 hours at 37° C. To prepare standard sample, Tα1 0.1 mL with different concentrations from 0.0004 to 400 μg/mL was added by 0.1 mL 1:1500 rabbit anti-Tα1 serum (final concentration is 1:6000), and 0.2 mL CD-1® mouse serum. Prepare blank control at the same time. Total volume is 0.4 mL. Incubate for 2 hours at 37° C.
Sample Testing Add the prepared test sample and standard sample to ELISA plate, 0.1 mL/well, reacting for 1 hour in 37° C. chamber. Wash the plates 3 times, spin dryed. Add substrate 0.1 mL/well for 10 minutes. Add 2 mol/L H2SO4 0.05 mL to each well to terminate the reaction. Measure the OD value at 450 nm. Plot the standard curve with the concentration of Tα1 standard sample as abscissa and OD value as vertical coordinate. Calculate the content of test sample according to this standard curve.

Where no end group is shown, it is not given here.

For the substance “Ac-[Cys^16(mPEG5000-MAL)]Tα1 (Ac-SDAAVDTSSEITTKDC(mPEG5000‑maleimide)KEKKEVVEEAEN; UniProt P06454 2-29, looked up, variant L16C) [BMJB016]”, the “Concentration of IFN-γ” value in series [1] (Table 1-1, sample 1 μg/mL) was 1426.8 ± 36.8 pg/mL; in series [1] (Table 1-1, sample 10 μg/mL) it was 1295.7 ± 165.9 pg/mL; in series [1] (Table 1-1, sample 100 μg/mL) it was 455.5 ± 79.3**↓ pg/mL. In addition, the “Enhancement percentage” value in series [1] (Table 1-1, sample 1 μg/mL) is on record as “+89.8%”; in series [1] (Table 1-1, sample 10 μg/mL) it was “+72.4%”; in series [1] (Table 1-1, sample 100 μg/mL), −39.4%; in series [2] (sample 10 μg/mL), “+60.9%”; in series [2] (sample 50 μg/mL), “+67.4%”; in series [2] (sample 100 μg/mL) it was “+53.5%”. Further, the “3H-TdR incorporation (cpm, x ± SD)” value in series [2] (sample 10 μg/mL) was found to be 21697 ± 3489 cpm; in series [2] (sample 50 μg/mL), 22584 ± 1463 cpm; in series [2] (sample 100 μg/mL), 20708 ± 1211 cpm. In series [3], the AUC (in general, concentration integrated over time) was 120000 ng·h/mL. For the same substance, the Cmax (as a rule, the highest concentration seen after dosing) in series [3] amounted to 6289 ng/mL. Besides, the Tmax (usually the time at which the peak concentration occurs) in series [3] is 6.000 h.
With “Ac-[Cys^17(mPEG5000-MAL)]Tα1 (Ac-SDAAVDTSSEITTKDLC(mPEG5000‑maleimide)EKKEVVEEAEN; UniProt P06454 2-29, looked up, variant K17C) [BMJB017]”, the “Concentration of IFN-γ” value is on record as 1048.9 ± 181.4 pg/mL in series [1] (Table 1-1, sample 1 μg/mL); 856.4 ± 61.8 pg/mL in series [1] (Table 1-1, sample 10 μg/mL); 474.7 ± 10.2**↓ pg/mL in series [1] (Table 1-1, sample 100 μg/mL). The “Enhancement percentage” value is recorded as “+39.5%” in series [1] (Table 1-1, sample 1 μg/mL); “+13.9%” in series [1] (Table 1-1, sample 10 μg/mL); −36.9% in series [1] (Table 1-1, sample 100 μg/mL); “+40.3%” in series [2] (sample 10 μg/mL); “+56.4%” in series [2] (sample 50 μg/mL); “+24.4%” in series [2] (sample 100 μg/mL). Also, the “3H-TdR incorporation (cpm, x ± SD)” value in series [2] (sample 10 μg/mL) is listed as 18919 ± 3507 cpm; in series [2] (sample 50 μg/mL) it was 21091 ± 3916 cpm; in series [2] (sample 100 μg/mL), 16778 ± 2483 cpm. The same substance registered an AUC in series [3] of 83500 ng·h/mL. In series [3], this substance yielded a Cmax of 11980 ng/mL. The Tmax in series [3] was found to be 1.000 h.
Consider “BMJB020: PEG modification of Tα1 (SDAAVDTSSEITTKDLKEKKEVVEEAEN; ends and bridges not checked; also: PEG conjugate, site not given here; UniProt P06454 2-29, looked up)”, for which, in series [1] (Table 1-3, sample 1 μg/mL), the “Concentration of IFN-γ” value worked out at 3998.3 ± 157.7 pg/mL and the Enhancement percentage result is listed as “+30.9%”. In series [1] (Table 1-3, sample 10 μg/mL), the “Concentration of IFN-γ” value is 2654.0 ± 211.1 pg/mL and the Enhancement percentage is recorded as −13.1%. Also, in series [1] (Table 1-3, sample 100 μg/mL), the “Concentration of IFN-γ” value turned out to be 3135.8 ± 195.4 pg/mL and the Enhancement percentage result is listed as “+2.7%”. Moreover, in series [3], the AUC is 4080 ng·h/mL, the Cmax was determined as 172 ng/mL and the time of peak concentration (Tmax) is 12.000 h.
With “BMJB015: PEG modification of Tα1, listed after BMJBT004 in Table 1-2 (SDAAVDTSSEITTKDLKEKKEVVEEAEN; ends and bridges not checked; also: PEG conjugate, site not given here; UniProt P06454 2-29, looked up)”, in series [1] (Table 1-2, sample 1 μg/mL), the “Concentration of IFN-γ” value stood at 3908.2 ± 147.2 pg/mL and the “Enhancement percentage” value is recorded as “+20.0%”. Moreover, in series [1] (Table 1-2, sample 10 μg/mL), the “Concentration of IFN-γ” value stood at 3962.9 ± 137.6 pg/mL and the “Enhancement percentage” value is listed as “+21.6%”. In series [1] (Table 1-2, sample 100 μg/mL), the “Concentration of IFN-γ” value was 3526.2 ± 68.0 pg/mL and the “Enhancement percentage” value is reported as “+8.2%”. Further, in series [3], the area under the curve (AUC) was 106000 ng·h/mL, the Cmax worked out at 5082 ng/mL and the time to peak (Tmax) was found to be 3.000 h.
